# According to patent publication US9643951B2, “Compound having somatostatin receptor agonistic activity and pharmaceutical use thereof” (ONO PHARMACEUTICAL CO., LTD., priority 2013, dated 2017):
# Tests used:
# human SSTR2 = molecular target: T1, human SSTR2 (Homo sapiens, UniProt P30874); assay: Evaluation of SSTR2 agonistic activity using cells expressing human SSTR2 (suppression of forskolin-stimulated cAMP production, SSTR2-CHO-K1); type: cell-based
# T1 construct: Myc; expressed in transfected cells
# Protocol: Evaluation of SSTR2 Agonistic Activity Using Cells Expressing Human SSTR2
# (1) Isolation of Human SSTR2 Gene
# Human brain cDNA was purchased from Ambion (catalogue No.: 7962; Lot No.: 040200121). PCR primers, hSSTR2_F1_XhoI: 5′-[…]-3′ (SEQ ID NO: 1) and hSSTR2_R1_EcoRI: 5′-[…]-3′ (SEQ ID NO: 2) were designed on the basis of the sequence GenBank NM_001050.
# PCR reaction (95° C. for 2 min.→[98° C. for 10 sec., 60° C. for 30 sec. and 68° C. for 90 sec.]×30 cycles) was carried out using the human brain cDNA as a template and using KOD-plus-(TOYOBO Co., Ltd.). The amplified PCR product was subjected to 1% agarose gel electrophoresis, purified using QIAquick Gel Extraction Kit (QIAGEN) and digested with restriction enzymes XhoI and EcoRI. The digested fragments were ligated to an expression vector (pIRESneo-Myc) using the DNA Ligation Kit Ver. 2 (Takara) and used for transformation of E. coli DH5a. The plasmid pIRESneo-Myc/hSSTR2 was prepared and the DNA sequence thereof was confirmed.
# (2) Culture of CHO-K1 Cells
# CHO-K1 (−) was cultured in Ham's F-12 medium (containing foetal bovine serum (10%), penicillin (100 U/mL) and streptomycin (0.1 mg/mL)). The transduced cells were cultured in the same medium supplemented with Geneticin (1 mg/mL).
# (3) Transduction of CHO-K1 Cells
# CHO-K1(−) cells were transduced with the plasmid pIRESneo-Myc/hSSTR2 using Lipofectamine 2000 (Invitrogen). After 48 hours, selection was carried out by replacing the medium with the one containing 1 mg/mL of Geneticin to establish a stable overexpressing cell line (SSTR2-CHO-K1).
# (4) Evaluation of SSTR2 Agonistic Activity
# The human SSTR2 agonistic activity of a test compound was evaluated according to the following procedures by using a suppression activity of intracellular cyclic AMP (cAMP) production by forskolin stimulation as an index. SSTR2-CHO-K1 cells suspended in Ham's F-12 medium (containing foetal bovine serum (10%), penicillin (100 U/mL) and streptomycin (0.1 mg/mL)) supplemented with 0.25 mg/mL of Geneticin were inoculated into a 96-well plate at a density of 4.0×10^4 cells/0.1 mL per well. On the next day, the medium was removed and washed twice with 0.1 mL of wash buffer [0.1% bovine serum albumin (BSA), 20 mmol/L 4-(2-hydroxyethyl)-1-piperazineethane sulphonic acid (HEPES)-containing Hank's balanced salt solution (HBSS)]. An assay buffer [[…] 3-isobutyl-1-methylxanthine (IBMX), 0.1% BSA, 20 mmol/L HEPES-containing HBSS] was added to the wells at 0.06 mL per well and the plate was incubated for 15 minutes under the conditions of 5% carbon dioxide and 37° C. Thereafter, an assay buffer containing a test compound at a concentration twice as high as the final concentration and 0.02 mmol/L of forskolin was added to wells at 0.06 mL per well and the plate was incubated for 30 minutes under the conditions of 5% carbon dioxide and 37° C. Thereafter, the Assay/Lysis buffer included in the cAMP-Screen® kit (available from Applied Biosystems) was added to wells at 0.12 mL per well and the plate was incubated for 30 minutes under the conditions of 5% carbon dioxide and 37° C. The concentration of cAMP in samples were measured by ELISA according to the instruction of the kit.
# [1] = Evaluation of cytotoxicity using cultured human hepatocytes (intracellular ATP); type: cell-based; conditions: read-out: IC50 of cytotoxicity (concentration at which 50% of the luminescence is suppressed)
# Protocol: Evaluation of Cytotoxicity Using Cultured Human Hepatocytes
# Frozen adhesive human hepatocytes were thawed, suspended in a hepatocellular medium (HCM) purchased from Lonza and inoculated to a 96-well plate coated with collagen. The culture medium of the hepatocytes cultured overnight in an incubator (5% carbon dioxide, 95% air, 37° C.) was exchanged to the medium containing a test compound at a concentration of 0, 12.5, 25, 50, 100, 200 or 400 (×10^−6 mol/L) and the cells were further cultured for 24 hours. Cytotoxicity was evaluated by measuring the intracellular ATP concentration. Specifically, using the Promega Celltiter-Glo luminescent assay kit available from Promega, cells were lysed in the assay buffer included in the kit and the concentration of ATP released from the cells was measured according to the luminescence resulting from luciferin-luciferase enzyme activity. The luminescence was measured on the SpectraMax plate reader from Molecular Devices. The extent of cytotoxicity of a test compound is represented by the concentration (IC50) of the compound at which 50% of the luminescence is suppressed.
# [2] = test system: growth hormone (GH) secretion; assay: Evaluation of suppression of growth hormone (GH) secretion using rats (GHRH-induced); type: in vivo; conditions: Rattus norvegicus, Procedure (B): oral administration 8 hours beforehand, 1 mg/kg, read-out: percentage of suppression of GH secretion
# Protocol: Evaluation of Suppression of Growth Hormone (GH) Secretion Using Rats
# [Procedure (A): Administration of a Test Compound 30 Minutes Beforehand]
# A medium (distilled water (Otsuka distilled water, Otsuka Pharmaceutical Factory, […]) IGS rats (Charles River Laboratories Japan, Inc.)) and after 27 minutes, the animals were administered with 50 mg/kg of pentobarbital sodium (Somnopentyl, Kyoritsu Seiyaku Corporation) via the tail vein for anaesthesia. Three minutes after administration of pentobarbital sodium, the rats were administered with 0.01 mg/kg of growth hormone-releasing hormone (GHRH, Bachem) via the tail vein to induce GH secretion. In order to measure the blood GH concentration, 0.2 mL of blood was collected through the jugular vein at 5 minutes after administration of GHRH. The collected blood was centrifuged at 4° C., 13,000×g for 5 minutes to obtain plasma. The blood GH concentration was measured by using Rat/Mouse Growth Hormone ELISA (Millipore) following the instruction of the kit. The percentage (%) of suppression of GH secretion was determined by using the obtained blood GH concentration and the equation {[suppression (%) of GH secretion]=([blood GH concentration of the group administered with the medium]−[blood GH concentration of the group administered with a test compound])/[blood GH concentration of the group administered with the medium]×100}. In the equation, the group administered with the medium represents the group of animals administered with the medium and the group administered with a test compound represents the group of animals administered with a test compound dissolved in the medium.
# [Procedure (B): Administration of a Test Compound 8 Hours Beforehand]
# A medium (distilled water (Otsuka distilled water, Otsuka Pharmaceutical Factory, […]) IGS rats (Charles River Laboratories Japan, Inc.)) and after 7 hours and 57 minutes, the animals were administered with 50 mg/kg of pentobarbital sodium (Somnopentyl, Kyoritsu Seiyaku Corporation) via the tail vein for anaesthesia. Three minutes after administration of pentobarbital sodium, the rats were administered with 0.01 mg/kg of growth hormone-releasing hormone (GHRH, Bachem) via the tail vein to induce GH secretion. The rest of the procedure is the same as in [Procedure (A)] described above.
# [3] = Human hepatic microsome stability test; type: in vitro ADME; conditions: human hepatic microsomes 1 mg/mL; 60 minutes; test compound 0.001 mmol/L; 37° C.
# Protocol: Human Hepatic Microsome Stability Test
# To a reaction vessel heated to 37° C. in a water bath, 0.392 mL of phosphate buffer (0.1 mol/L, pH 7.4) containing human hepatic microsomes (1 mg/mL, Xenotech) and NADPH-Co-factor (NADP+1.3 mmol/L, BD-Bioscience) was added and pre-incubated for 5 minutes. A 50% acetonitrile solution (0.008 mL) containing 0.05 mmol/L of a test compound was added thereto to initiate the enzyme reaction (final concentration of the test compound: 0.001 mmol/L). Immediately after initiation of the reaction and at 60 minutes thereafter, 0.050 mL of the reaction solution was respectively collected, which was immediately added to an acetonitrile solution (0.2 mL) containing an internal standard (45 nmol/L, 1-[3-(3,5-dimethylphenyl)-4-quinolinyl]-4-piperidineamine) to terminate the enzyme reaction.
# The residual rate (%), which is indicative of stability of the test compound, was calculated using the ratio of peak areas between the test compound and the internal substance determined by LC/MS/MS (TSQ Quantum Discovery MAX, Thermo) analysis of the sample thus prepared by the above procedures followed by filtration, and the equation: {[residual rate (%)=[peak area of a test compound in a sample at 60 minutes after initiation of the reaction/peak area of the internal standard]/[peak area of the test compound in the sample immediately after initiation of the reaction/peak area of the internal standard]×100}.
# T1 sequence (P30874 whole entry): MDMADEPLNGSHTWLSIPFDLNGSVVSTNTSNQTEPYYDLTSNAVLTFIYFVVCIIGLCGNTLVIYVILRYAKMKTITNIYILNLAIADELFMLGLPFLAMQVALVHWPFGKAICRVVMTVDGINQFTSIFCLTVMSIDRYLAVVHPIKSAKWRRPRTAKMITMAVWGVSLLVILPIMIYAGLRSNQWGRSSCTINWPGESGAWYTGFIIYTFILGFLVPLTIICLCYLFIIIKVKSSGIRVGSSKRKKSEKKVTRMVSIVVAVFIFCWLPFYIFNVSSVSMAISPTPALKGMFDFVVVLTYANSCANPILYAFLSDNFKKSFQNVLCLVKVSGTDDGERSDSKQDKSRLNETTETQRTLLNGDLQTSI
SMILES,EC50 (human SSTR2) [nM],IC50 at 24 h [1] [µM],inhibition in vivo at 1 mg/kg [2] [%],residual rate [3] [%]
"CCNC1CCN(c2c(/C=C(\C)c3cccc(F)c3)cncc2-c2cc(Cl)cc(Cl)c2)CC1 [Example 5(5), 1-{3-(3,5-dichlorophenyl)-5-[(1E)-2-(3-fluorophenyl)-1-propen-1-yl]-4-pyridinyl}-N-ethyl-4-piperidineamine]",0.071,17,85,88.6
"NC1CCN(c2c(-c3ccc(C(F)(F)F)cc3)cncc2-c2cc(F)cc(Cl)c2)CC1 [Example 2, 1-{3-(3-chloro-5-fluorophenyl)-5-[4-(trifluoromethyl)phenyl]-4-pyridinyl}-4-piperidineamine]",0.083,10,93,88.0
"C/C(=C\c1cncc(-c2cc(Cl)cc(Cl)c2)c1N1CCC(N)CC1)c1cccc(C#N)c1 [Example 4, 3-{(1E)-1-[4-(4-amino-1-piperidinyl)-5-(3,5-dichlorophenyl)-3-pyridinyl]-1-propen-2-yl}benzonitrile]",0.034,17,84,100.0
"C/C(=C\c1cncc(-c2cc(Cl)cc(Cl)c2)c1N1CCC(N)CC1)c1cccc(F)c1 [Example 3, 1-{3-(3,5-dichlorophenyl)-5-[(1E)-2-(3-fluorophenyl)-1-propen-1-yl]-4-pyridinyl}-4-piperidineamine]",0.04,36,88,85.2
"CCNC1CCN(c2c(-c3ccc(C(F)(F)F)cc3)cncc2-c2cc(Cl)cc(Cl)c2)CC1 [Example 5(1), 1-{3-(3,5-dichlorophenyl)-5-[4-(trifluoromethyl)phenyl]-4-pyridinyl}-N-ethyl-4-piperidineamine]",0.045,18,90,57.6
"NC1CCN(c2c(-c3ccc(OC(F)F)cc3)cncc2-c2cc(F)cc(Cl)c2)CC1 [Example 2(1), 1-{3-(3-chloro-5-fluorophenyl)-5-[4-(difluoromethoxy)phenyl]-4-pyridinyl}-4-piperidineamine]",0.041,19,91,100.0
"Fc1cccc(/C=C/c2cncc(-c3cc(Cl)cc(Cl)c3)c2N2CC[C@@H]3NCCO[C@H]3C2)c1 [Example 3(2), (4aS,8aS)-6-{3-(3,5-dichlorophenyl)-5-[(E)-2-(3-fluorophenyl)vinyl]-4-pyridinyl}octahydro-1H-pyrido[3,4-b][1,4]oxazine]",0.097,17,84,48.4
"NC1CCN(c2c(-c3ccc(OC(F)F)cc3)cncc2-c2cc(Cl)cc(Cl)c2)CC1 [Example 2(3), 1-{3-(3,5-dichlorophenyl)-5-[4-(difluoromethoxy)phenyl]-4-pyridinyl}-4-piperidineamine]",0.021,9,88,96.4
"NC1CCN(c2c(/C=C/c3cccc(Cl)c3)cncc2-c2cc(F)cc(Cl)c2)CC1 [Example 3(1), 1-{3-(3-chloro-5-fluorophenyl)-5-[(E)-2-(3-chlorophenyl)vinyl]-4-pyridinyl}-4-piperidineamine]",0.11,19,86,50.3
"CCNC1CCN(c2c(-c3ccc(C4(C#N)CC4)cc3)cncc2-c2cc(Cl)cc(Cl)c2)CC1 [Example 5(2), 1-(4-{5-(3,5-dichlorophenyl)-4-[4-(ethylamino)-1-piperidinyl]-3-pyridinyl}phenyl)cyclopropanecarbonitrile]",0.036,22,90,80.3
"N#CC1(c2ccc(-c3cncc(-c4cc(Cl)cc(Cl)c4)c3N3CC[C@@H]4NCCO[C@H]4C3)cc2)CC1 [Example 2(5), 1-(4-{5-(3,5-dichlorophenyl)-4-[(4aS,8aS)-octahydro-6H-pyrido[3,4-b][1,4]oxazin-6-yl]-3-pyridinyl}phenyl)cyclopropanecarbonitrile]",0.05,19,85,53.1
